Results: article PMC8623467, “Biochemical Characterization of Recombinant Isocitrate Dehydrogenase and Its Putative Role in the Physiology of an Acidophilic Micrarchaeon” (Microorganisms, 2021)

System: T1, MhIDH6x His
T1 construct: gene icd2; full-length; N-terminal 6xHis tag kept (primer: MHHHHHHEEQKKESIS...); C-terminus AIKSA from primer; pBAD202, E. coli Rosetta pRARE; Ni-IMAC and SEC; homodimer only modelled
Assay: NADPH formation at […] nm, Michaelis-Menten fit
Type: biochemical, Candidatus Micrarchaeum harzensis
Conditions: 100 mM TRIS/HCl pH 8.0, 28 °C, Mg2+ (5 mM MgCl2 standard mixture)

Km (20 mM NADP+ (Figure 4 legend)) [µM] | Km (1 mM DL-isocitrate) [µM] | Compound
53 ± 5.63 | – | O=C(O)CC(C(=O)O)C(O)C(=O)O (racemic) [DL-isocitrate]
– | 1940 ± 120 | NC(=O)c1ccc[n+]([C@@H]2O[C@H](COP(=O)(O)OP(=O)(O)OC[C@H]3O[C@@H](n4cnc5c(N)ncnc54)[C@H](OP(=O)(O)O)[C@@H]3O)[C@@H](O)[C@H]2O)c1 [NADP^+]
